Laboratory results: US11051515B2, “3-acyl-benzamides and their use as herbicides” (Bayer Aktiengesellschaft, priority 2017, dated 2021)

Columns and labels:
AVEFA [1] = experiment: Pre-emergence action against AVEFA; type: in vivo, Avena fatua; conditions: Avena fatua, 504 h, dosage 320 g/ha, scored visually after 3 weeks vs untreated controls, read-out: Pre-emergence action against AVEFA (herbicidal activity)
How it was run: (§1)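 Seeds sown in sandy loam in wood-fiber pots and covered with soil. Greenhouse growth; visual damage scored after 3 weeks versus untreated controls (100% = dead, 0% = like control).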

ECHCG = experiment: Pre-emergence action against ECHCG; type: in vivo, Echinochloa crus-galli; conditions: for pest or weed control at 320 g/ha: Echinochloa crus-galli, 504 h, pre-emergence, dosage 320 g/ha, scored visually after 3 weeks vs untreated controls, read-out: Pre-emergence action against ECHCG (herbicidal activity); for Herbicidal efficacy against ECHCG: Table V3, pre-emergence, 80 g of a.i./ha
How it was run: as §1

ABUTH [2] = experiment: Pre-emergence action against ABUTH; type: in vivo, Abutilon theophrasti; conditions: for pest or weed control at 320 g/ha: Abutilon theophrasti, 504 h, pre-emergence, dosage 320 g/ha, scored visually after 3 weeks vs untreated controls, read-out: Pre-emergence action against ABUTH (herbicidal activity)
How it was run: as §1

AMARE = experiment: Pre-emergence action against AMARE; type: in vivo, Amaranthus retroflexus; conditions: for pest or weed control at 320 g/ha: Amaranthus retroflexus, 504 h, pre-emergence, dosage 320 g/ha, scored visually after 3 weeks vs untreated controls, read-out: Pre-emergence action against AMARE (herbicidal activity); for Herbicidal efficacy against AMARE: Table V3, pre-emergence, 80 g of a.i./ha
How it was run: as §1

MATIN [3] = experiment: Pre-emergence action against MATIN; type: in vivo, Matricaria inodora; conditions: for pest or weed control at 320 g/ha: Tripleurospermum inodorum, 504 h, Dosage 320 g/ha, pre-emergence
How it was run: as §1

PHBPU [4] = experiment: Pre-emergence action against PHBPU; type: in vivo, Pharbitis purpurea; conditions: for pest or weed control at 320 g/ha: Ipomoea purpurea, 504 h, Dosage 320 g/ha, pre-emergence
How it was run: as §1

STEME [5] = experiment: Pre-emergence action against STEME; type: in vivo, Stellaria media; conditions: for pest or weed control at 320 g/ha: Stellaria media, 504 h, Dosage 320 g/ha, pre-emergence
How it was run: as §1

VIOTR [6] = experiment: Pre-emergence action against VIOTR; type: in vivo, Viola tricolor; conditions: for pest or weed control at 320 g/ha: Viola tricolor, 504 h, Dosage 320 g/ha, pre-emergence
How it was run: as §1

ALOMY = experiment: Post-emergence action against ALOMY; type: in vivo, Alopecurus myosuroides; conditions: for pest or weed control at 80 g/ha: Alopecurus myosuroides, 504 h, Dosage 80 g/ha, post-emergence
How it was run: (§2)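 Weeds grown in sandy loam in greenhouse, treated at one-leaf stage (2–3 weeks after sowing) with WP or EC formulations sprayed as aqueous suspension/emulsion at 600 to […] water with 0.2% wetting agent. Visual rating after about 3 weeks versus untreated controls, as % herbicidal action (100% = plants dead, 0% = like control).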

AVEFA [7] = experiment: Post-emergence action against AVEFA; type: in vivo, Avena fatua; conditions: for pest or weed control at 80 g/ha: Avena fatua, 504 h, post-emergence, dosage 80 g/ha, visual assessment about 3 weeks after treatment vs untreated controls, read-out: Post-emergence action against AVEFA (herbicidal action in percent)
How it was run: as §2

CYPES = experiment: Post-emergence action against CYPES; type: in vivo, Cyperus esculentus; conditions: for pest or weed control at 80 g/ha: Cyperus esculentus, 504 h, post-emergence, dosage 80 g/ha, visual assessment about 3 weeks after treatment vs untreated controls, read-out: Post-emergence action against CYPES (herbicidal action in percent)
How it was run: as §2

SETVI = experiment: Post-emergence action against SETVI; type: in vivo, Setaria viridis; conditions: for pest or weed control at 80 g/ha: Setaria viridis, 504 h, post-emergence, dosage 80 g/ha, visual assessment about 3 weeks after treatment vs untreated controls, read-out: Post-emergence action against SETVI (herbicidal action in percent)
How it was run: as §2

ABUTH [8] = experiment: Post-emergence action against ABUTH; type: in vivo, Abutilon theophrasti; conditions: Abutilon theophrasti, 504 h; post-emergence, dosage 80 g/ha, visual assessment about 3 weeks after treatment vs untreated controls; read-out: Post-emergence action against ABUTH (herbicidal action in percent)
How it was run: as §2

MATIN [9] = experiment: Post-emergence action against MATIN; type: in vivo, Matricaria inodora; conditions: for pest or weed control at 80 g/ha: Tripleurospermum inodorum, 504 h, post-emergence, dosage 80 g/ha, visual assessment about 3 weeks after treatment vs untreated controls, read-out: Post-emergence action against MATIN (herbicidal action in percent)
How it was run: as §2

PHBPU [10] = experiment: Post-emergence action against PHBPU; type: in vivo, Pharbitis purpurea; conditions: for pest or weed control at 80 g/ha: Ipomoea purpurea, 504 h, post-emergence, dosage 80 g/ha
How it was run: as §2

STEME [11] = experiment: Post-emergence action against STEME; type: in vivo, Stellaria media; conditions: for pest or weed control at 80 g/ha: Stellaria media, 504 h, post-emergence, dosage 80 g/ha
How it was run: as §2

VIOTR [12] = experiment: Post-emergence action against VIOTR; type: in vivo, Viola tricolor; conditions: for pest or weed control at 80 g/ha: Viola tricolor, 504 h, post-emergence, dosage 80 g/ha
How it was run: as §2

VERPE [13] = experiment: Post-emergence action against VERPE; type: in vivo, Veronica persica; conditions: Veronica persica, 504 h, dosage 80 g/ha
How it was run: as §2

VERPE [14] = experiment: Pre-emergence action against VERPE; type: in vivo, Veronica persica; conditions: for pest or weed control at 320 g/ha: Veronica persica, 504 h, Dosage 320 g/ha, pre-emergence
How it was run: as §1

[15] = Table V7, pre-emergence, 20 g of a.i./ha
[16] = Table V18, post-emergence, 20 g of a.i./ha
[17] = Table V17, post-emergence, 5 g of a.i./ha
[18] = Table V3, pre-emergence, 80 g of a.i./ha
[19] = Table V4, pre-emergence, 20 g of a.i./ha
[20] = Table V16, post-emergence, 5 g of a.i./ha
[21] = Table V16, post-emergence, 20 g of a.i./ha
[22] = Table V2, pre-emergence, 20 g of a.i./ha
[23] = Table V15, post-emergence, 5 g of a.i./ha

Compound	pest or weed control at 320 g/ha (AVEFA [1]) [%]	pest or weed control at 320 g/ha (ECHCG) [%]	pest or weed control at 320 g/ha (ABUTH [2]) [%]	pest or weed control at 320 g/ha (AMARE) [%]	pest or weed control at 320 g/ha (MATIN [3]) [%]	pest or weed control at 320 g/ha (STEME [5]) [%]	pest or weed control at 320 g/ha (VIOTR [6]) [%]	pest or weed control at 80 g/ha (ALOMY) [%]	pest or weed control at 80 g/ha (AVEFA [7]) [%]	pest or weed control at 80 g/ha (CYPES) [%]	pest or weed control at 80 g/ha (SETVI) [%]	pest or weed control at 80 g/ha (ABUTH [8]) [%]	pest or weed control at 80 g/ha (MATIN [9]) [%]	pest or weed control at 80 g/ha (PHBPU [10]) [%]	pest or weed control at 80 g/ha (STEME [11]) [%]	pest or weed control at 80 g/ha (VIOTR [12]) [%]	pest or weed control at 80 g/ha (VERPE [13]) [%]	pest or weed control at 320 g/ha (PHBPU [4]) [%]	pest or weed control at 320 g/ha (VERPE [14]) [%]	Herbicidal efficacy against ECHCG (ECHCG)	further results
Cc1c(C(=O)Nc2nnnn2C)ccc(S(C)(=O)=O)c1C(=O)C1CC1 [1-9]	80	100	100	100	100	80	100	100	100	80	100	90	100	100	100	100	100				Herbicidal efficacy against ABUTH (ABUTH [2]; [15]): 100; Herbicidal efficacy against MATIN (MATIN [3]; [15]): 90; Herbicidal efficacy against PHBPU (PHBPU [4]; Table V6, pre-emergence, 80 g of a.i./ha): 60; Herbicidal efficacy against VIOTR (VIOTR [6]; [15]): 70; Herbicidal efficacy against VIOTR (VIOTR [6]; Table V9, pre-emergence, 80 g of a.i./ha): 100; Herbicidal efficacy against ALOMY (ALOMY; [16]): 80; Herbicidal efficacy against AVEFA (AVEFA [7]; [16]): 80; Herbicidal efficacy against CYPES (CYPES; [16]): 70; Herbicidal efficacy against SETVI (SETVI; [16]): 100; Herbicidal efficacy against MATIN (MATIN [9]; [17]): 100; Herbicidal efficacy against MATIN (MATIN [9]; [16]): 100; Herbicidal efficacy against PHBPU (PHBPU [10]; [16]): 100; Herbicidal efficacy against STEME (STEME [11]; [16]): 100; Herbicidal efficacy against VIOTR (VIOTR [12]; [17]): 100
CSc1c(C(=O)Nc2nnnn2C)ccc(C(F)(F)F)c1C(C)=O [1-58]	100	100	100	100	100	100	100	90	100	90	100	100	100	100	100	100	100	100	100		
CC(=O)c1c(S(C)(=O)=O)ccc(C(=O)Nc2nnnn2C)c1Cl [1-127]	90	100	100	100	100	90	100		80	80	80	90	100	100	90	100	100	90	100	100	Herbicidal efficacy against ABUTH (ABUTH [2]; [18]): 100; Herbicidal efficacy against ABUTH (ABUTH [2]; [19]): 90; Herbicidal efficacy against AMARE (AMARE): 100; Herbicidal efficacy against MATIN (MATIN [3]; [18]): 90; Herbicidal efficacy against MATIN (MATIN [3]; [19]): 70; Herbicidal efficacy against STEME (STEME [5]; [19]): 70; Herbicidal efficacy against VIOTR (VIOTR [6]; Table V1, pre-emergence, 80 g of a.i./ha): 100; Herbicidal efficacy against VIOTR (VIOTR [6]; [18]): 100; Herbicidal efficacy against VERPE (VERPE [14]; [19]): 90; Herbicidal efficacy against MATIN (MATIN [9]; Table V14, post-emergence, 5 g of a.i./ha): 90; Herbicidal efficacy against MATIN (MATIN [9]; [20]): 90; Herbicidal efficacy against MATIN (MATIN [9]; [21]): 100; Herbicidal efficacy against PHBPU (PHBPU [10]; [20]): 70; Herbicidal efficacy against PHBPU (PHBPU [10]; [21]): 100; Herbicidal efficacy against VIOTR (VIOTR [12]; [20]): 100; Herbicidal efficacy against VIOTR (VIOTR [12]; [21]): 100
Cn1nnnc1NC(=O)c1ccc(S(C)(=O)=O)c(C(=O)C2CC2)c1Cl [1-129]	100	100	100	100	100	100	100	100	100	80	100	90	90	100	100	100	100	100	100	100	ECHCG (ECHCG; [22]): 90; Herbicidal efficacy against ABUTH (ABUTH [2]; [18]): 100; AMARE (AMARE; [22]): 90; Herbicidal efficacy against AMARE (AMARE): 100; MATIN (MATIN [3]; [22]): 90; Herbicidal efficacy against MATIN (MATIN [3]; [18]): 100; Herbicidal efficacy against VIOTR (VIOTR [6]; [18]): 100; VERPE (VERPE [14]; [22]): 100; Herbicidal efficacy against ALOMY (ALOMY; [23]): 70; Herbicidal efficacy against AVEFA (AVEFA [7]; [23]): 60; Herbicidal efficacy against CYPES (CYPES; [23]): 60; Herbicidal efficacy against SETVI (SETVI; [23]): 100; Herbicidal efficacy against MATIN (MATIN [9]; [23]): 80
